In patent US20180318300A1, “TREATMENT OF AUTOIMMUNE DISEASE” (MingSight Pharmaceuticals, Inc., priority 2015, published 2018):
Marks after values point to notes of the source that are not given here.

Legend:
[1] = tested on: experimental autoimmune encephalitis (EAE) model; assay: Experimental autoimmune encephalitis (EAE) model in Lewis rats; assay type: in vivo; conditions: for EAE incidence (%): from Day 8
Protocol: Compound A was tested in the experimental autoimmune encephalitis (EAE) model in Lewis rats. EAE was induced by MBP69-88/CFA immunization and pertussis toxin injection in Lewis rats (Hashim, et al., 1986, J Neurosci Res.; 16(3):467-78). Compound A was prepared as an oral suspension and dosed orally, twice per day (BID) at three doses, 7.5 and 15 and 30 mg/kg for total daily doses of 15, 30 and 60 mg/kg. The efficacy was compared to animals that received the positive control FTY720 (also known as fingolimod; a compound approved for use in humans) dosed once per day at a dose of 0.5 mg/kg.

[2] = tested on: experimental autoimmune uveitis; assay: Lewis rat model of experimental autoimmune uveitis; assay type: in vivo; conditions: oral, once per day, 10 and 20 mg/kg
Protocol: The efficacy was compared to animals that received the positive control cyclosporine dosed at 25 mg/kg. […] Efficacy in the model was assessed by clinical grading and by assessment of the sections of the eyes prepared for histology at the completion of the experiment.

[3] = tested on: Interleukin-8 release; assay: Interleukin-8 release; assay type: cell-based
Excerpt: (§1) The methods for these determinations have been described (Grant, et al. 2010, Eur J Pharmacol. 627:16-25).

[4] = tested on: rat model of encephalitis; assay: rat model of encephalitis; assay type: in vivo; conditions: FIG. 11
[5] = target: PKCβ (Homo sapiens, UniProt P05771); assay: pSHP2 (PKCβ cell assay); assay type: cell-based
[6] = tested on: MRL/lpr lupus model; assay: MRL/lpr lupus model; assay type: in vivo
[7] = Separate pharmacokinetics experiments in mice; assay type: in vivo; conditions: 60 mg/kg dose, oral suspension
[8] = tested on: MRL/lpr mouse model of lupus; assay: MRL/lpr mouse model of lupus; assay type: in vivo, Female MRL/MpJ-Tnfrsf6lpr/J mice
Protocol: Compound A was tested for efficacy in the MRL/lpr mouse model of lupus (Shlomchik M J, et al, 1994, J Exp Med 180:1295-1306; Cohen P L and Eisenberg R. A. 1991, Annu Rev Immunol, 9:243-69; Honigberg, L. A., et al., 2010, Proc Natl Acad Sci USA. 107:13075-80). Female MRL/MpJ-Tnfrsf6lpr/J mice of 8-9 weeks of age were used in the study. When the mice reached 12 weeks of age, they were randomized by animal body weight into one of the treatment groups or an untreated control group. Treatments was initiated after randomization and continued for 12 weeks. Starting on study week 1, and then every week thereafter, urine from each animal was tested for proteinuria using the Clinitech Multistick test strip (Bayer). The animals were observed daily for significant clinical signs, moribundity and mortality. Scoring of lymphadenopathy (cervical, brachial, and inguinal) for all animals was recorded every week once lesions become apparent in 50% of the animals in vehicle-treated group.
Compound A was prepared as an oral suspension. Initial dosing was completed at two dose levels, 60 and 90 mg/kg, BID for a total dose of 120 and 180 mg/kg/day. […] Dosing for the final 8 weeks was at 180 and 240 mg/kg/day.

[9] = target: Human PKC delta (Homo sapiens, UniProt Q05655); assay: In vitro PKC inhibition assay, PKC delta; assay type: biochemical
Excerpt: as §1

[10] = treatment of increased spleen weight; assay type: in vivo; conditions: FIG. 10
[11] = 120 mg/kg p.o. BID (60 mg/kg BID for the initial 4 weeks)
[12] = both doses (180 and 240 mg/kg/day for the final 8 weeks)

Sequence of Human PKC delta (Q05655 whole entry): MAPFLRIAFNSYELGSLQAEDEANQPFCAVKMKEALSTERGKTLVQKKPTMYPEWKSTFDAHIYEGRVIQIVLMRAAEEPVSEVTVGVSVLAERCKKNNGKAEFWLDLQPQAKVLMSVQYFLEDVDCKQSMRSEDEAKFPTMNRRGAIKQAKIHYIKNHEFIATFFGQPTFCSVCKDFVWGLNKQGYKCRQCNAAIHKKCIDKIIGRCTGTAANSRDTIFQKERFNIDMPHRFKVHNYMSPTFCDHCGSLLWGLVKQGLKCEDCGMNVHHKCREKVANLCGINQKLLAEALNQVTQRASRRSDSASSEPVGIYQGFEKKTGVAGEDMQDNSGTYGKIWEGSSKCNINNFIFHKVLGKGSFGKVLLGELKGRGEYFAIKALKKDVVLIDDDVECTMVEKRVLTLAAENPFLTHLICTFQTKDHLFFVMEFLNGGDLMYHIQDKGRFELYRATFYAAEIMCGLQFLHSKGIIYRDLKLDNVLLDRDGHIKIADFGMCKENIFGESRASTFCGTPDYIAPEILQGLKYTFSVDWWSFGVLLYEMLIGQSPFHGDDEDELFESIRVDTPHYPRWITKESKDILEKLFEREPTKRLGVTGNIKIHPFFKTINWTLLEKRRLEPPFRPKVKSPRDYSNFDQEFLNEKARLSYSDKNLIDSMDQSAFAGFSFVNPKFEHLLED
Sequence of PKCβ (P05771 whole entry, species assumed): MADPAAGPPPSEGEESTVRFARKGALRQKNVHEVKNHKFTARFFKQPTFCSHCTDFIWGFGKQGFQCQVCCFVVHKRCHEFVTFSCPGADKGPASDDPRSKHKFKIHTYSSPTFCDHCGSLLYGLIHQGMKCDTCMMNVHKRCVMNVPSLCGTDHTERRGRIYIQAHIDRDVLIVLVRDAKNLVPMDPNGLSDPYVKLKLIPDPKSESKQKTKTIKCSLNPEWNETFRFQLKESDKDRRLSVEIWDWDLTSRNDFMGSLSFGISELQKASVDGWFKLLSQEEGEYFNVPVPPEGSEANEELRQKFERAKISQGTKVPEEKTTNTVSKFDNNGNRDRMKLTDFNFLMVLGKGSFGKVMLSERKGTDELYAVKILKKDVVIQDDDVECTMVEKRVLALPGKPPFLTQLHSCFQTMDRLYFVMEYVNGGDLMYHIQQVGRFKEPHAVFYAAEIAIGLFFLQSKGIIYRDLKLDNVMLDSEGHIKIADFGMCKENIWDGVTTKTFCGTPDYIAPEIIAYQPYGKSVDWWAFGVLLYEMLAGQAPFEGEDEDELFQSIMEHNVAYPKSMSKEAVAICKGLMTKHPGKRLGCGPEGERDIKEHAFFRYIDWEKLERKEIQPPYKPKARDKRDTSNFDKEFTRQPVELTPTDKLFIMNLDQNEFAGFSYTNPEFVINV

Compound: CCCCCCCCc1ccc(CCC(N)(CO)CO)cc1 [FTY720, fingolimod, reference compound]
- Mean day of onset +/− SEM (sick rats) ([1]; 0.5 mg/kg p.o. QD): 8.0 +/− 0.3
- Median day of onset (all rats) ([1]; 0.5 mg/kg p.o. QD): 8.0
- EAE incidence (%) ([1]; 0.5 mg/kg p.o. QD): 87.5%

Compound: Cc1ncc(F)c(Nc2n[nH]c3c2CN(C(=O)N2C[C@@H](C)N(CC4CCOCC4)C[C@@H]2C)C3(C)C)n1 [compound A, 5-{[(2S,5R)-2,5-dimethyl-4-(tetrahydro-2H-pyran-4-ylmethyl)piperazin-1-yl]carbonyl}-N-(5-fluoro-2-methylpyrimidin-4-yl)-6,6-dimethyl-1,4,5,6-tetrahydropyrrolo[3,4-c]pyrazol-3-amine]
- Reduction in clinical scores (FIG. 12) [2]: greater than 50%
- Reduction in histopathological scores (FIG. 13) [2]: greater than 75%
- Mean day of onset +/− SEM (sick rats) ([1]; 7.5 mg/kg p.o. BID): 9.0 +/− 0.5
- Median day of onset (all rats) ([1]; 7.5 mg/kg p.o. BID): 9.0
- EAE incidence (%) ([1]; 7.5 mg/kg p.o. BID): 100.0%
- Mean day of onset +/− SEM (sick rats) ([1]; 15 mg/kg p.o. BID): 8.5 +/− 0.4
- Median day of onset (all rats) ([1]; 15 mg/kg p.o. BID): 8.0
- EAE incidence (%) ([1]; 15 mg/kg p.o. BID): 100.0%
- Mean day of onset +/− SEM (sick rats) ([1]; 30 mg/kg p.o. BID): 9.0 +/− 0.9
- Median day of onset (all rats) ([1]; 30 mg/kg p.o. BID): 13.5
- EAE incidence (%) ([1]; 30 mg/kg p.o. BID, p<0.05 vs. vehicle): 50.0%*
- Clinical score in the EAE model ([1]; 7.5, 15 and 30 mg/kg BID): dose-dependent decrease
- End EAE severity compared to the vehicle control group (FIG. 11) ([1]; 15 and 30 mg/kg BID): significantly reduced
- Maximum EAE severity compared to the vehicle control group (FIG. 11) ([1]; 15 and 30 mg/kg BID): significantly reduced
- Clinical score compared with fingolimod ([1]; highest dose employed (30 mg/kg BID) vs fingolimod 0.5 mg/kg QD): appeared superior to fingolimod
- IC50 [3]: 39 nM
- efficacy in a rat model of encephalitis [4]: efficacy
- IC50 [5]: 9.8 nM
- urine score ([6]; FIG. 7): reducing urine score
- lymphadenopathy ([6]; FIG. 8): reducing lymphadenopathy
- splenomegaly ([6]; FIG. 9): reducing splenomegaly
- Exposure of compound A in mice [7]: unexpectedly low and insufficient exposure
- BUN/Creatinine ([8]; 90 mg/kg p.o. BID): 163.9
- Creatinine ([8]; 90 mg/kg p.o. BID): 0.26
- BUN ([8]; 90 mg/kg p.o. BID, 12 weeks of treatment): 52.4 mg/dL
- BUN [8, 11]: 29.5 mg/dL
- BUN/Creatinine [8, 11]: 147.7
- Creatinine [8, 11]: 0.20
- Lymphadenopathy score (FIG. 8) [8, 12]: reduction
- Mean absolute spleen weight (FIG. 9) [8, 12]: reduction
- Mean lymph node weight (FIG. 10) [8, 12]: reduction
- Protein in the urine (FIG. 7) [8, 12]: significant reduction
- Inhibition of PKC delta (in words) [9]: does not significantly inhibit
- increased spleen weight [10]: efficacy
